This note sets out measurements from US20190022061A1 (priority 2017, published 2019).

This assay concerns Diet-induced obesity (DIO) mice. Briefly: Blood glucose level in DIO mice. It is filed as in vivo, C57BL/6J mice.

Method: In this study, RAASUS products (KH103, KHJ and KHGD) were dosed three times a day (T ID) for 99 days. […] On day 63 post dosing, OGTT test were conducted for all of the mice. […] On day −5, day 14, day 28 the non-fast blood was collected to determine the non-fast BG, insulin, TG, HDL-C, LDL-C and TCHO level. On day 42, day 56, day 70, day 84 the fast blood was collected to determine the fast BG, insulin, TG, HDL-C, LDL-C and TCHO level.
Male C57BL/6J mice (Shanghai Laboratory Animal Center, Shanghai, China, 5 weeks) were fed with high fat diet (D12492i, Research Diet, New Brunswick, N.J.) (caloric contribution: protein, 20%; fat, 60%; carbohydrates, 20%) ad lib for 21 weeks for the induction of obesity.
The mice of Group 3, Group 4 were orally dosed with KH103, KHJ respectively three times per day at 9:00, 13:00, 17:00 and free drinl<KH103, KHJ respectively at day and night from Day O to Day 99. […]
The random blood glucose, insulin level were measured using tailing nick once per two weeks on day −5, day 14, day 28.
The fast blood glucose (fast from 17:30 to 8:00 AM) insulin level were measured using tailing nick once per two weeks on day 42, day 56, day 70, day 84. […]
Blood Glucose: Blood glucose was determined using the Glucosemeter (Johnson and Johnson) and the Glucose Test Strips (Johnson and Johnson).

Regarding `CC(C)c1c(C(=O)Nc2ccccc2)c(-c2ccccc2)c(-c2ccc(F)cc2)n1CC[C@@H](O)C[C@@H](O)CC(=O)O` [Atorvastatin], the blood glucose level entry (DIO mice, po three times a day, compared with the vehicle groups, 12 weeks post dose) was “significantly decrease”. Further, the blood sugar level entry (animal study, diabetics, general statement) was “lower down”.
